Test results reported in ChEMBL document CHEMBL2439984, “Design, synthesis, and bioevaluation of viral 3C and 3C-like protease inhibitors” (Bioorg Med Chem Lett, 2013).
Active and inactive are the calls of the source. The rule behind the calls is not given here.

Columns and labels:
[1] = tested on: Norwalk virus; test: Antiviral activity against Norwalk virus infected in human HG23 cells; assay type: functional, cell-based
[2] = target: Prothrombin (Homo sapiens) (UniProt P00734); test: Inhibition of thrombin (unknown origin) using N-p-tosyl-Gly-Pro-Lys-pNa as substrate up to 10 uM preincubated for 30 mins prior to substrate addition measured for 120 seconds by spectrophotometric analysis
[3] = target: Trypsin (Homo sapiens) (UniProt P07477+P07478+P35030); test: Inhibition of trypsin (unknown origin) using BAPNA as substrate up to 10 uM preincubated for 10 mins prior to substrate addition measured for 300 seconds by spectrophotometric analysis; assay type: protein assay
[4] = species on record: Homo sapiens; test: Inhibition of alpha-chymotrypsin (unknown origin) using Suc-Ala-Ala-Pro-Phe as substrate up to 10 uM preincubated for 10 mins prior to substrate addition measured for 60 seconds by spectrophotometric analysis
[5] = target: T1, Neutrophil elastase (Homo sapiens) (UniProt P08246); test: Inhibition of human neutrophil elastase using MeO-Suc-Ala-Ala-Pro-Val-pNa as substrate up to 10 uM preincubated for 30 mins prior to substrate addition measured for 120 seconds by spectrophotometric analysis
T1 sequence (whole entry): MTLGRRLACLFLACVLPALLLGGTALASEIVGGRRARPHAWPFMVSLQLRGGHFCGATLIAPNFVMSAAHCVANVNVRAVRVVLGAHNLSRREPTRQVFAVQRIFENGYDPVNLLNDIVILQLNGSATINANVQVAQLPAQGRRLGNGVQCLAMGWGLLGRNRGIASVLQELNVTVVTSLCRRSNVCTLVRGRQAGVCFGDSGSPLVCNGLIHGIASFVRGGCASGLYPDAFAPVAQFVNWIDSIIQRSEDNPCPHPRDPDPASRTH

[6] = Cytotoxicity against human HG23 cells after 72 hrs by crystal violet staining-based assay; assay type: cell-based
[7] = tested on: Human coronavirus 229E; test: Antiviral activity against Coronavirus 229E infected in human […] cells; assay type: functional, organism-based
[8] = Antiviral activity against Human rhinovirus 18 infected in human […] cells; assay type: functional, cell-based, Human rhinovirus A18; conditions: Rhinovirus A
[9] = Antiviral activity against Murine norovirus 1 infected in human […] cells; assay type: functional, cell-based; conditions: Norwalk virus
[10] = target: Replicase polyprotein 1ab (Severe acute respiratory syndrome-related coronavirus, UniProt P0C6X7); test: Inhibition of SARS coronavirus 3C-like protease by FRET assay
[11] = Inhibition of Human rhinovirus sp. […] protease by FRET assay
[12] = Inhibition of Norovirus MD145 protease 3C by FRET assay
[13] = Inhibition of SARS coronavirus protease 3C by FRET assay; design: species or system Severe acute respiratory syndrome-related coronavirus

Structure (SMILES): CC(C)C[C@H](NC(=O)[C@@H](Cc1cccc2ccccc12)NC(=O)OCc1ccccc1)C(=O)N[C@H](C=O)C[C@@H]1CCNC1=O
- EC50 [1]: 450 nM

Structure (SMILES): CCOP(=O)(OCC)C(O)[C@H](C[C@@H]1CCNC1=O)NC(=O)[C@H](CC(C)C)NC(=O)[C@H](Cc1cccc2ccccc12)NC(=O)OCc1ccccc1 (stereo partly specified)
- EC50 [1]: 100 nM

Structure (SMILES): CC(C)C[C@H](NC(=O)[C@H](Cc1ccccc1)NC(=O)OCc1ccccc1)C(=O)N[C@H](C=O)C[C@@H]1CCNC1=O
- EC50 [1]: 60 nM

Structure (SMILES): CC(C)C[C@H](NC(=O)[C@H](Cc1cccc2ccccc12)NC(=O)OCc1ccccc1)C(=O)N[C@H](C=O)C[C@@H]1CCNC1=O
- inhibition [2]: inactive
- inhibition [3]: inactive
- inhibition [4]: inactive
- inhibition [5]: inactive
- CC50 at 72 h [6]: 87 µM
- EC50 [7]: 200 nM
- EC50 [8]: 15 nM
- EC50 [9]: 600 nM
- IC50 [10]: 230 nM
- IC50 [11]: 150 nM
- IC50 [12]: 510 nM
- EC50 [1]: 40 nM

Structure (SMILES): CC(C)C[C@H](NC(=O)[C@H](Cc1cccc2ccccc12)NC(=O)OCc1ccccc1)C(=O)N[C@@H](C[C@@H]1CCNC1=O)C(=O)C(=O)NC(C)C
- CC50 at 72 h [6]: > 100 µM
- EC50 [7]: 500 nM
- EC50 [8]: 30 nM
- EC50 [9]: 4200 nM
- IC50 [13]: 610 nM
- IC50 [11]: 120 nM
- IC50 [12]: 3100 nM
- EC50 [1]: 4200 nM

Structure (SMILES): CC(C)C[C@H](NC(=O)[C@H](Cc1cccc2ccccc12)NC(=O)OCc1ccccc1)C(=O)N[C@@H](C[C@@H]1CCNC1=O)C(O)S(=O)(=O)O (stereo partly specified)
- EC50 [1]: 40 nM

Structure (SMILES): CC(C)C[C@H](NC(=O)[C@H](Cc1ccc2ccccc2c1)NC(=O)OCc1ccccc1)C(=O)N[C@H](C=O)C[C@@H]1CCNC1=O
- EC50 [1]: 80 nM

Structure (SMILES): CC(C)C[C@H](NC(=O)[C@H](Cc1ccc(-c2ccccc2)cc1)NC(=O)OCc1ccccc1)C(=O)N[C@H](C=O)C[C@@H]1CCNC1=O
- EC50 [1]: 50 nM
